This is an account of results in ChEMBL document CHEMBL1128927, “Synthesis and biological activities of [N-MeLeu5] didemnin B” (Bioorg Med Chem Lett, 1996).

Holding throughout (format): functional
The species named for one experiment is Oryctolagus cuniculus. The experiment is described as follows: In vitro inhibition of protein synthesis in rabbit reticulocyte lysates.
The subject of a further experiment is A549. Nature of the experiment: Compound was evaluated for cytotoxic activity against non-small lung cancer A549/ATCC cell lines. The following applies: Homo sapiens, read-out: LC50 (the source's name).
A further experiment has as its system HT-29. The experiment is described as follows: Compound was evaluated for cytotoxic activity against colon cancer HT-29 cell lines. Particulars: Homo sapiens, read-out: LC50 (the source's name).
For another experiment, the system named is RXF 393. Nature of the experiment: Compound was evaluated for cytotoxic activity against renal cancer RXF-393 cell lines. Particulars: Homo sapiens, read-out: LC50 (the source's name).
The test system of the next experiment is SK-MEL-5. The experiment is described as follows: Compound was evaluated for cytotoxic activity against melanoma Sk-MEL-5 cell lines. The following applies: Homo sapiens, read-out: LC50 (the source's name).
The next experiment relates to SNB-75. The experiment is described as follows: Compound was evaluated for cytotoxic activity against CNS cancer SNB-75 cell lines. The following applies: Homo sapiens, read-out: LC50 (the source's name).

As for `CC[C@H](C)[C@H]1NC(=O)[C@@H](NC(=O)[C@@H](CC(C)C)N(C)C(=O)[C@@H]2CCCN2C(=O)[C@H](C)O)[C@@H](C)OC(=O)[C@H](CC(C)C)N(C)C(=O)[C@@H]2CCCN2C(=O)[C@H](CC(C)C)NC(=O)[C@@H](C)C(=O)[C@H](C(C)C)OC(=O)C[C@@H]1O` [listing 1 of 2 here], the IC50 in the experiment listed under Oryctolagus cuniculus was 9 µM.
`CC[C@H](C)[C@H]1NC(=O)[C@@H](NC(=O)[C@@H](CC(C)C)N(C)C(=O)[C@@H]2CCCN2C(=O)[C@H](C)O)[C@@H](C)OC(=O)[C@H](CC(C)C)N(C)C(=O)[C@@H]2CCCN2C(=O)[C@H](CC(C)C)NC(=O)[C@@H](C)C(=O)[C@H](C(C)C)OC(=O)C[C@@H]1O` [listing 2 of 2 here]: the CC50 in the experiment on A549 is over 25 µM; in the experiment with HT-29 it was 0.445 µM; in the experiment on RXF 393 it was 0.258 µM; in the experiment on SK-MEL-5, 0.0799 µM; in the experiment with SNB-75, 0.399 µM.
